Experimental data from patent US12366579B2, “Sulfur-heterocycle exchange chemistry and uses thereof” (University of Virginia Patent Foundation, priority 2019, dated 2025).

Experiments:
HEK293T, Jurkat cells = assay: Live cell chemical proteomic profiling with SuTEx probes; assay type: cell-based, human; conditions: 100 μM, 2 hr, 37° C.; membrane and soluble fractions; both probes
Experimental: Cells grown to ˜90% confluency in 10 cm plates were treated with DMSO vehicle or sulfonyl-triazole probe (10 μL of 1000×DMSO stock) in serum-free media for the indicated concentrations and times at 37° C. with 5% CO2. After treatment, cells were washed with cold PBS twice before harvesting and preparation for gel-based chemical proteomic evaluation as described above. For LC-MS studies, protein concentrations were normalized to 2.3 mg/mL and 432 μL (for 1 mg final protein amount) were used for sample preparation as detailed below.
Proteomes were diluted to 2.3 mg/mL in PBS and sample aliquots (432 μL) were treated with sulfonyl-triazole or -fluoride probes at the indicated concentrations (5 μL, 100× stock in DMSO), mixed gently and incubated for 1 h at room temperature. Probe-modified proteomes were subjected to CuAAC conjugation to desthiobiotin-PEG3-azide (10 μL of 10 mM stock in DMSO; final concentration of 200 μM) using TCEP (10 μL of fresh 50 mM stock in water; 1 mM final concentration), TBTA ligand (33 μL of a 1.7 mM 4:1 t-butanol/DMSO stock, 100 μM final concentration), and CuSO4 (10 μL of 50 mM stock, 1 mM final concentration). Samples were mixed by vortexing and then incubated for 1 h at room temperature. Excess reagents were removed by chloroform-methanol extraction as previously described^51. […]

[1] = HPLC reactivity assay with glutathione (GSH stability); assay type: physicochemical; conditions: 5×GSH, basic conditions (TMG)
Experimental: Glutathione (GSH) adduction to compounds is a mechanism of metabolism for compounds administered to animals and humans. Accordingly, an HPLC reactivity assay^72 was performed to evaluate whether sulfonyl-triazoles (HHS-475) react with GSH. HHS-475 (see Example 1) was used as an exemplary SuTEx compound. Initially, the HPLC assay was used to monitor the rapid reaction of HHS-475 with the model nucleophile p-cresol (as a mimic of the tyrosine side chain) under basic conditions (TMG). […] The 5×GSH was used because GSH is typically found at high concentrations in vivo.

[2] = HPLC assay, p-cresol reactivity against a sulfonyl probe mixture; assay type: physicochemical; conditions: TMG 1.1 equivalents, 0° C.
Experimental: (§1) The following reagents were prepared and kept at 0° C. prior to use: 0.1 M solution of caffeine in acetonitrile (ACN), 1.0 M solution of n-butylamine, p-cresol, tetramethylguanidine (TMG), acetic acid in ACN, and 10 mM solution of the probes in a mixture of DMF-ACN (v/v=10:90) are made.
(i) p-Cresol reactivity against a probe mixture: A solution of p-cresol (16.5 μmol, 3.3 eq) was premixed with 1.1, 2.2, or 3.3 eq of TMG. To initiate the reaction, the p-cresol/TMG solution was added to a sulfonyl probe mixture of HHS-475/HHS-482/HHS-SF-1 (500 μL, 5 μmol, 1.0 eq each) and the reaction was kept at 0° C. The reaction progress was monitored by taking out a 50.0 μL aliquot of the reaction mixture at various time points followed by addition of a 10 μL quenching solution of acetic acid (0.5 M final, 5.0 μmol) and the internal caffeine standard (0.05 M final, 0.5 μmol). Sample (1.0 μL) was injected and analyzed by reverse-phase HPLC on a Shimadzu 1100 Series spectrometer (Shimadzu, Kyoto, Japan) with UV detection at 254 nm. Reaction progress was evaluated by monitoring consumption of sulfonyl probes because all probes generate a shared p-cresol and n-butylamine product. Chromatographic separation was performed using a Phenomenex Kinetex C18 column (2.6 μm, 50 mm×4.6 mm, Phemonenex, Torrance, California, United States of America). […]

[3] = HPLC assay, n-butylamine reactivity against a sulfonyl probe mixture; assay type: physicochemical; conditions: TMG 3.3 equivalents
Experimental: as §1
(ii) n-Butylamine reactivity against a probe mixture: Reactivity of sulfonyl probes against n-butylamine (3.3 eq) was performed as described above except the amount of TMG was fixed at 3.3 eq.

C#CCNC(=O)c1ccc(S(=O)(=O)n2cncn2)cc1 [HHS-475, 4-((1H-1,2,4-Triazol-1-yl)sulfonyl)-N-(prop-2-yn-1-yl)benzamide]
distinct tyrosine sites measured in live cell studies, in total per cell line (HEK293T, Jurkat cells): ~3,500 sites | reaction with GSH [1]: negligible reaction | time to consumption of probe by p-cresol [2]: ≤ 30 min | time to complete reaction with n-butylamine [3]: 6 h
